# Source: patent US6599896B1 (Les Laboratoires Servier, priority 1999, dated 2003)
# Columns and labels:
# [1] = tested on: cortical neurons in culture; assay: In vitro neurotoxicity caused by hypoxia in cortical cells (LDH activity); type: cell-based, rat; details: 20 μM; 3 hours hypoxia, LDH after 24 hours
# Experimental: (§1) Cortical cells are extracted from Sprague-Dawley rat foetuses and cultured in MEM (minimum essential medium) containing 5% horse serum and 5% calf foetus serum.
# After morphological examination of the cells, the culture supernatants are collected and the lactate dehydrogenase (LDH) activity therein is measured.
# [2] = tested on: cortical neurons in culture; assay: In vitro neurotoxicity caused by glutamate in cortical cells (LDH activity); type: cell-based, rat; details: 20 μM; 1 mM glutamate 15 minutes
# Experimental: as §1
# Just before treatment with glutamate, the culture medium is replaced by 300 μl of saline solution buffered with HEPES. The cells are incubated for 15 minutes together with 1 mM glutamate. The culture media are then replaced by 200 μl of MEM without serum and the cells are incubated at 37° C. for 24 hours. After morphological examination of the cells, the culture supernatants are collected and the lactate dehydrogenase (LDH) activity therein is measured.
# motoneurons = details: Duong et al., Br. J. Pharmacol., 128, 1385-1392; cited from earlier work
# mitochondrial genome = assay: In vivo expression of genes implicated in oxidative stress (RT-PCR, amygdala); details: rat, 15 mg/kg i.p. for 21 days
# Experimental: After sacrifice of the animals and removal of the brains, the total RNA of the amygdala region is extracted and then subjected to an RT-PCR test. In brief, reverse transcription is performed on the extracted RNA, the transcription products are then amplified by chain polymerisation (PCR) and then subjected to high-resolution polyacrylamide gel electrophoresis. The bands of interest are removed from the gel, re-amplified, sequenced and analysed.
# astrocytes in culture = assay: ATP levels associated with hypoxia in astrocytes maintained in culture; type: cell-based, rat; details: hypoxia 24 hours
# Experimental: Cultures of astrocytes are obtained using new-born rats according to the technique described by Booher J. and Sensenbrenner M. (Neurobiology 2, 97-105, […]). They are used three weeks after being placed in culture. […] The concentration of ATP is determined by luminescence and expressed in picomoles of ATP per mg of cellular proteins. The experiments are conducted in triplicate.
# AMPA/kainate receptors = assay: Patch clamp: current induced by kainate in telencephalic cells in primary culture; type: cell-based, rat
# Experimental: Telencephalic cells of 16.5 day-old Wistar rat fetuses were cultured for 12 days. Patch clamp experiments were then conducted at ambient temperature in the following medium: 5 mM KCl, 140 mM NaCl, 10 mM Hepes, 2 mM MgCl2, 2 mM CaCl2 and 10 mM D-glucose (pH=7.3), and the micropipettes were filled with 140 mM KCl, 4 mM NaCl, 10 mM Hepes, 5 mM EGTA and 0.5 mM CaCl2 (pH=7.2).
# That effect is measured by the patch clamp technique.
# [3] = tested on: purified embryonic motoneurons; assay: Death of motoneurons deprived of growth factors (survival count); type: cell-based, rat; details: BDNF 1 ng/ml; 2.5 days of culture
# Experimental: Pregnant Sprague-Dawley rats are sacrificed on the 14th day of embryo life. The motoneurons of the embryos are purified according to the method published by C.
# The motoneurons are seeded a density of approximately 1000 cells per 16-mm well and are cultured in Neurobasal, supplemented by B27 and horse serum. […] The surviving motoneurons are counted directly.
# After 2.5 days of culture, motoneurons are counted in 2 areas of each of the 4 wells. Absolute value per area are presented (mean+/−s.e.m., n=8).
molecule,measurement,setting,value
C[C@]12N[C@H](Cc3ccccc31)c1ccccc12 [MK-801],protection against the effects of hypoxia (LDH activity),[1],86.3%
same,protection against toxicity caused by glutamate (LDH activity),[2],total protection
Cl.FC(F)(F)c1cccc(C2=CCN(CCc3ccc4ccccc4c3)CC2)c1 [SR57746A],activity on the survival of motoneurons in vitro,motoneurons,active
CN1c2ccccc2C(NCCCCCCC(=O)O)c2ccc(Cl)cc2S1(=O)=O (stereo not drawn) [tianeptine],expression of mitochondrial genes in the amygdala,mitochondrial genome,"overexpression of the mitochondrial genes of NADH ubiquinone reductase (sub-units 2 and 5) and also of genes coding for 16S rRNA, leu-tRNA and val-tRNA"
same,percentage protection of astrocytes (ATP level),astrocytes in culture; 10 μM (maximal),68%
same,protection of astrocytes (ATP level),"astrocytes in culture; 0.1-1-10 μM, FIG. 4",protects astrocytes in culture in a dose-dependent manner
same,"effect on the current entering the cells, compound on its own (direct agonism)","AMPA/kainate receptors; 10 μM, without kainate",no effect
same,effect on the current induced by kainate,"AMPA/kainate receptors; 4, 10 and 25 μM, kainate 250 μM, FIG. 1",increases the current induced by kainate
"Brain-Derived Neurotrophic Factor (protein, UniProt P23560 19-247, looked up, growth factor, 1 ng/ml, positive control for motoneuron survival) Neurotrophic factor BDNF …: APMKEANIRGQGGLAYPGVRTHGTLESVNGPKAGSRGLTSLADTFEHVIEELLDEDQKVRPNEENNKDADLYTSRVMLSSQVPLEPPLLFLLEEYKNYLDAANMSMRVRRHSDPARRGELSVCDSISEWVTAADKKTAVDMSGGTVTVLEKVPVSKGQLKQYFYETKCNPMGYTKEGCRGIDKRHWNSQCRTTQSYVRALTMDSKKRIGWRFIRIDTSCVCTLTIKRGR",survival of motoneurons,[3],protect the motoneurons from cell death
